According to article PMC11481871, “Discovery of GuaB inhibitors with efficacy against Acinetobacter baumannii infection” (mBio, 2024):
Values after ≈ are worked out from the molar mass of the structure shown. Values joined by “and” are separate entries in the source; they are usually repeats but may differ in a detail not shown here. Equal values may be shown once. Read-outs that look alike come from different tables or passages of the source.

Legend:
A. baumannii GuaB = A. baumannii GuaB (Acinetobacter baumannii, UniProt D0CF46); test: GuaB biochemical IC50
S. aureus GuaB = S. aureus GuaB (Staphylococcus aureus, UniProt P99106); test: GuaB biochemical IC50
E. coli GuaB = E. coli GuaB (Escherichia coli, UniProt P0ADG7); test: GuaB biochemical IC50
Staphylococcus aureus = test: MIC, CLSI microdilution; assay type: cell-based; settings: NRS 384 / USA300; Staphylococcus aureus USA300 NRS384; RPMI1640
[1] = tested on: Mycobacterium tuberculosis H37Rv; test: MIC, resazurin redox assay; assay type: cell-based; settings: ATCC 27294 / H37Rv, 192 h, Mycobacterium tuberculosis H37Rv (ATCC27294)
Mycobacterium marinum = test: MIC, CLSI microdilution; assay type: cell-based; settings: 7H9 + OADC, 48 h
Mycobacterium smegmatis = test: MIC, CLSI microdilution; assay type: cell-based; settings: Mycolicibacterium smegmatis; Mycobacterium smegmatis mc2-155; 7H9 + OADC, 48 h
Enterococcus faecium = test: MIC, CLSI microdilution; assay type: cell-based; settings: Enterococcus faecium (ATCC700221); RPMI1640
Bacillus subtilis = test: MIC, CLSI microdilution; assay type: cell-based; settings: RPMI1640
Pseudomonas aeruginosa = test: MIC, CLSI microdilution; assay type: cell-based; settings: 20 h; Pseudomonas aeruginosa PAO1; M9 + casamino acids + glucose
[2] = tested on: Stenotrophomonas maltophilia; test: MIC, CLSI microdilution; assay type: cell-based; settings: 20 h; Stenotrophomonas maltophilia (ATCC700267); M9 + casamino acids + glucose
Citrobacter werkmanii = test: MIC, CLSI microdilution; assay type: cell-based; settings: 20 h; Citrobacter werkmanii (ATCC51114); M9 + casamino acids + glucose
Enterobacter aerogenes = test: MIC, CLSI microdilution; assay type: cell-based; settings: Klebsiella aerogenes, 20 h; Enterobacter aerogenes (ATCC13048); M9 + casamino acids + glucose
Klebsiella pneumoniae = test: MIC, CLSI microdilution; assay type: cell-based; settings: ATCC43816, 20 h; Klebsiella pneumoniae (ATCC 43816); M9 + casamino acids + glucose
Proteus mirabilis = test: MIC, CLSI microdilution; assay type: cell-based; settings: 20 h; Proteus mirabilis (ATCC29906); M9 + casamino acids + glucose
[3] = tested on: A. baumannii 19606 (wild-type); test: microbe, parasite or virus in culture; assay type: cell-based, Acinetobacter baumannii; settings: for MIC: Acinetobacter baumannii
[4] = tested on: Acinetobacter baumannii ATCC19606 GuaB mutants; test: MIC on GuaBi-resistant A. baumannii 19606 guaB mutants; assay type: cell-based; settings: for MIC: Acinetobacter baumannii
[5] = tested on: 41 different cellular targets; test: Secondary pharmacology panel (Cerep Eurofins); assay type: binding; settings: for Hits (>50% Binding) / Hits (>75% Binding): 41 targets
hERG = biological target: T1, hERG (Homo sapiens, UniProt Q12809); test: hERG 2-point automatic patch clamp assay; assay type: cell-based
T1 construct: expressed in transfected cells; host or cells: HEK293
Procedure: All chemicals used in solution preparation were purchased from Sigma-Aldrich (St. Louis, MO) unless otherwise noted. Test article and positive control concentrations were prepared fresh daily by diluting stock solutions into a HEPES-buffered physiological saline solution (composition in mM): NaCl, 137; KCl, 4.0; CaCl2, 1.8; MgCl2, 1; HEPES, 10; glucose, 10; pH adjusted to 7.4 with NaOH. HEK293 cells were stably transfected with hERG cDNA and maintained in the culture medium with the appropriate selection pressure and antibiotics. All experiments were performed at room temperature. […]
In preparation for a recording session, intracellular solution was loaded into the intracellular compartments of the QPlate and cell suspension was pipetted into the extracellular compartments. After establishment of a whole-cell configuration, membrane currents were recorded using up to 48 parallel patch clamp amplifiers in the QPatch HT system. The current records were sampled at 2,000 Hz and low-pass Bessel filtered at 400 Hz. Onset and block of hERG current were measured using a stimulus voltage pattern consisting of a 500 ms prepulse to –40 mV (leakage subtraction), a 2-s activating pulse to +40 mV, followed by a 2-s test pulse to −40 mV. The pulse pattern was repeated continuously at 10-s intervals, from a holding potential of −80 mV. Peak tail current (upper panel) was measured during the −40 mV test pulse. Leakage current was calculated from the current amplitude evoked by the prepulse and subtracted from the total membrane current record. Data acquisition and analysis was performed using the QPatch Assay Software (Sophion Bioscience A/S, Denmark). Solubility of all compounds was measured using TurboSol in conjunction with the ion channel testing.

in vitro = assay type: cell-based, human; settings: human
Procedure: (§1) Primary human hepatocytes were plated on 384-well, collagen-coated plates in incubation media with no serum or with 10% fetal bovine serum (FBS). Eighteen hours later, cells were treated with the test article at seven concentrations starting at 100 µM in twofold dilutions, chlorpromazine (positive control) at seven concentrations starting at 100 µM in twofold dilutions or aflatoxin (positive control) at seven concentrations starting at 25 µM in twofold dilutions. Cell viability was then assayed using the Promega Cell TiterGlo ATP Assay.

[6] = tested on: Primary human hepatocytes; test: in vitro; assay type: cell-based
Procedure: as §1

[7] = 24 h, M9 media + 100µM guanine, 24 hours, read-out: A.b.19606 Average CLSI MIC (n=3)
[8] = 24 h, M9 media, 24 hours, read-out: A.b.19606 Average CLSI MIC (n=3)
[9] = A. baumannii 19606 wild-type (Fig 3D), read-out: Avg. MIC
[10] = guaB allele wild-type, M9 media (cross-resistance table), read-out: A.b.19606 Average CLSI MIC (n=3)
[11] = ATCC19606, read-out: A.b.19606 Average CLSI MIC (n=3), guaB allele P25A, M9 media
[12] = ATCC19606, read-out: A.b.19606 Average CLSI MIC (n=3), guaB allele P25S, M9 media
[13] = ATCC19606, read-out: A.b.19606 Average CLSI MIC (n=3), guaB allele Y445C, M9 media
[14] = ATCC19606, read-out: A.b.19606 Average CLSI MIC (n=3), guaB allele Y445N, M9 media
[15] = ATCC19606, read-out: A.b.19606 Average CLSI MIC (n=3), guaB allele Y445S, M9 media
[16] = resistance allele Y445N, from fluctuation assay
[17] = General cytotoxicity IC50, Serum
[18] = General cytotoxicity IC50, Serum-Free

T1 sequence (Q12809 whole entry): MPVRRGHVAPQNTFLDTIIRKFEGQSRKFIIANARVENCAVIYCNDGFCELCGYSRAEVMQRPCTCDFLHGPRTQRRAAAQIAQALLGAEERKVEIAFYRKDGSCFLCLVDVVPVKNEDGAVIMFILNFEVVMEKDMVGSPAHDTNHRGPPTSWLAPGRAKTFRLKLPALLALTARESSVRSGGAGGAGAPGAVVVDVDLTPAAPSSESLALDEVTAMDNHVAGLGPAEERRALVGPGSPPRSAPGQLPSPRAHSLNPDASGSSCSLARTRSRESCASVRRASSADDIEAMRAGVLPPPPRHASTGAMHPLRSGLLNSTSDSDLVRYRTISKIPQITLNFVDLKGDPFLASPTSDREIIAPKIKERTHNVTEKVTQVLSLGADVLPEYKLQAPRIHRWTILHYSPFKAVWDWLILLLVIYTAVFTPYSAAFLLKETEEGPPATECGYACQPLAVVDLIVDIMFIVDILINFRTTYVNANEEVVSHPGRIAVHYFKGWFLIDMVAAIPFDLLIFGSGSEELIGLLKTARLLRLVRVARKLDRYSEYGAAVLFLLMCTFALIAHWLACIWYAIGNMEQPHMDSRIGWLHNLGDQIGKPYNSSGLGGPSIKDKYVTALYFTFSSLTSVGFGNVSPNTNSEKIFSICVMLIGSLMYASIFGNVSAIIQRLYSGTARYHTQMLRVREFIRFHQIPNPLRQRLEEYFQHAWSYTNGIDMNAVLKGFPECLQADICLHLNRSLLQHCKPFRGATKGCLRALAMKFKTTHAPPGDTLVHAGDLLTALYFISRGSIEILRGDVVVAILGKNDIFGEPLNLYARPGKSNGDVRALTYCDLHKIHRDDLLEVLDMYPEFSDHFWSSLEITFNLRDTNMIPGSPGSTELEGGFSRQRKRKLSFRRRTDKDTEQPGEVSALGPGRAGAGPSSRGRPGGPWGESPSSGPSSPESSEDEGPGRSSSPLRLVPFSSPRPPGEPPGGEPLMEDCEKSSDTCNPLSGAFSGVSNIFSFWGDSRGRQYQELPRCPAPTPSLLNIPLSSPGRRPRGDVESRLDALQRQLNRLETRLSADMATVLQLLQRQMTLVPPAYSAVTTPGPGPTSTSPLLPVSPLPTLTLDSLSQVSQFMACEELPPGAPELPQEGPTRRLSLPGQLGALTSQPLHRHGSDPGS
E. coli GuaB, sequence (P0ADG7 whole entry): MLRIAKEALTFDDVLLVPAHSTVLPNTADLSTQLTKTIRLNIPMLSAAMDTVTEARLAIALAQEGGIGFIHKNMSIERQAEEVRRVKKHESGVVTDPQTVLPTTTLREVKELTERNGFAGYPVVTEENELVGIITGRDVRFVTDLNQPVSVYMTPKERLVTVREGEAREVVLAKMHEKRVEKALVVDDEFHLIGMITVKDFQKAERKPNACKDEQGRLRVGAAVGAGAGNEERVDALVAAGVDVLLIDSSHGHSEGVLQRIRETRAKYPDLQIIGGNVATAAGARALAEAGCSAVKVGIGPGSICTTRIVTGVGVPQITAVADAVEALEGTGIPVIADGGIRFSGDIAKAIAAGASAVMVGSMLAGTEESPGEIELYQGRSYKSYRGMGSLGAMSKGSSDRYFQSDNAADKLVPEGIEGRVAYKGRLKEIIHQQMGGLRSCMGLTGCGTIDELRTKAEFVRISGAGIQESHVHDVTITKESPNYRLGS
A. baumannii GuaB, sequence (D0CF46 entry or part of it): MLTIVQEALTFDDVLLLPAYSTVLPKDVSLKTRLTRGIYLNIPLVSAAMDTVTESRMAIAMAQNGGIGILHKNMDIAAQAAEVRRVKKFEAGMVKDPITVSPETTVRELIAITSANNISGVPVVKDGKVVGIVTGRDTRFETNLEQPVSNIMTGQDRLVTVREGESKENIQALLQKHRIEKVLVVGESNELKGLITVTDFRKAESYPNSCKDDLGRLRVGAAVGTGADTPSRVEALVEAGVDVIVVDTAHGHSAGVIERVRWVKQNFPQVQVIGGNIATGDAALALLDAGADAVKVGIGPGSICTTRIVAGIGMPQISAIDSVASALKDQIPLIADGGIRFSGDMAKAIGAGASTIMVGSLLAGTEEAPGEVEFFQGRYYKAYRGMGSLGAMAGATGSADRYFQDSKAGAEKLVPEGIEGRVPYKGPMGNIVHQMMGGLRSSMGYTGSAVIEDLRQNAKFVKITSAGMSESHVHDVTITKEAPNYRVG
S. aureus GuaB, sequence (P99106 whole entry): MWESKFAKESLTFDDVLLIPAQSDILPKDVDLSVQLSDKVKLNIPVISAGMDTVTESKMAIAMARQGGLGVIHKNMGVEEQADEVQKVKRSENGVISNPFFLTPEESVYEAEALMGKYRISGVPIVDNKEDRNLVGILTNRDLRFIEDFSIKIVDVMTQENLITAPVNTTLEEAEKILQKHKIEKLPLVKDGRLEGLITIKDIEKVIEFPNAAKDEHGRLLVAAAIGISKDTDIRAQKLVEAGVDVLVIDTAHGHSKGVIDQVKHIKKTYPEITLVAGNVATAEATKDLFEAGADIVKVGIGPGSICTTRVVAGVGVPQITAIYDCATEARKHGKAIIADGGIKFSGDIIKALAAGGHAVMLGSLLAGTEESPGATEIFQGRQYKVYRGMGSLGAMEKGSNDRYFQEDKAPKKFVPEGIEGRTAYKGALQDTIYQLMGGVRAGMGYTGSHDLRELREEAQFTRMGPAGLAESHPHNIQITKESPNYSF

C[C@H](Nc1ccc2ncc3c(c2c1)CCOC3)C(=O)Nc1ccc(Cl)nc1 [G1, (2S)-N-(6-chloro-3-pyridyl)-2-(2,4-dihydro-1H-pyrano[3,4-c]quinolin-9 ylamino)propanamide]
IC50 (A. baumannii GuaB): 0.26 nM | IC50 (S. aureus GuaB): 0.38 nM | IC50 (E. coli GuaB): 480 nM | MIC (Staphylococcus aureus): 0.1 µM (≈ 0.0383 µg/mL) | MIC [1]: 0.3 µM (≈ 0.115 µg/mL) | MIC (Mycobacterium marinum): 0.01 µM | MIC (Mycobacterium smegmatis): 0.01 µM | MIC (Enterococcus faecium): 1 µM (≈ 0.383 µg/mL) | MIC (Bacillus subtilis): 1.2 µM (≈ 0.459 µg/mL) | MIC (Pseudomonas aeruginosa): 100 µM | MIC [2]: 14 µM | MIC (Citrobacter werkmanii): > 100 µM | MIC (Enterobacter aerogenes): > 100 µM | MIC (Klebsiella pneumoniae): > 100 µM | MIC (Proteus mirabilis): > 100 µM | MIC [3, 7]: > 100 µM | MIC [3, 8]: 1 µM (≈ 0.383 µg/mL) | MIC [3, 9]: 0.69 µM (≈ 0.264 µg/mL) | MIC [3, 10]: 0.5 µM (≈ 0.191 µg/mL) | GuaBi CLSI MIC fold change from parent strain ([3]; guaB allele wild-type): 1 | MIC [4, 11]: 6.3 µM (≈ 2.41 µg/mL) | MIC [4, 12]: 2.6 µM (≈ 0.995 µg/mL) | MIC [4, 13]: 1.6 µM (≈ 0.613 µg/mL) | MIC [4, 14]: 41.7 µM (≈ 16 µg/mL) | MIC [4, 15]: > 100 µM | MIC ([4]; ATCC19606, read-out: MIC of resistant mutant, resistance allele Y445N, from fluctuation assay): 50 µM | MIC ([4]; ATCC19606, read-out: MIC of resistant mutant, resistance allele Y445S, from fluctuation assay): 50 µM | shifts in MIC conferred by on-target mutations ([4]; GuaBi-resistant mutants): ≥ 32 fold | GuaBi CLSI MIC fold change from parent strain ([4]; guaB allele P25A): 12 | GuaBi CLSI MIC fold change from parent strain ([4]; guaB allele P25S): 5 | GuaBi CLSI MIC fold change from parent strain ([4]; guaB allele Y445C): 3 | GuaBi CLSI MIC fold change from parent strain ([4]; guaB allele Y445N): 80 | GuaBi CLSI MIC fold change from parent strain ([4]; guaB allele Y445S): >200 | Fold shift in MIC vs parental wild-type [4, 16]: 64, 64 and 64 | MIC of resistant mutant [4, 16]: 50 µM | Fold shift in MIC vs parental wild-type ([4]; resistance allele Y445S, from fluctuation assay): 64, 64 | in vitro safety profile: promiscuity [5]: low promiscuity | in vitro safety profile: selectivity [5]: good selectivity | Promiscuity Risk ([5]; 10µM): 0% | Selectivity Risk ([5]; 10µM): 0% | Hits (>50% Binding) ([5]; 10µM): 0 | Hits (>75% Binding) ([5]; 10µM): 0 | hERG 1µM (hERG; 1µM): 2.80% | hERG 10µM (hERG): 37.20% | IC50 at 2 day (in vitro; [17]): > 100000 nM | IC50 at 2 day (in vitro; [18]): > 100000 nM | in vitro safety profile: cytotoxicity [6]: low cytotoxicity

C[C@@H](Oc1ccc2ncc3c(c2c1)CCOC3)c1cncc(-c2nc(Cl)c[nH]2)c1 [G8, (R)-9-[1-[5-(4-chloro-1H-imidazol-2-yl)-3-pyridyl]ethoxy]-2,4-dihydro-1H-pyrano[3,4 c]quinoline]
IC50 (A. baumannii GuaB): 0.14 nM | IC50 (S. aureus GuaB): 0.21 nM | IC50 (E. coli GuaB): 8 nM | MIC (Staphylococcus aureus): 0.01 µM (≈ 0.00407 µg/mL) | MIC [1]: 0.2 µM (≈ 0.0814 µg/mL) | MIC (Mycobacterium marinum): 0.03 µM | MIC (Mycobacterium smegmatis): 0.02 µM | MIC (Enterococcus faecium): 0.03 µM (≈ 0.0122 µg/mL) | MIC (Bacillus subtilis): 0.05 µM (≈ 0.0203 µg/mL) | MIC (Pseudomonas aeruginosa): 50 µM | MIC [2]: 5 µM | MIC (Citrobacter werkmanii): > 100 µM | MIC (Enterobacter aerogenes): > 100 µM | MIC (Klebsiella pneumoniae): > 100 µM | MIC (Proteus mirabilis): > 100 µM | MIC [3, 7]: > 100 µM | MIC [3, 8]: 0.4 µM (≈ 0.163 µg/mL) | MIC [3, 9]: 0.39 µM (≈ 0.159 µg/mL) | MIC [3, 10]: 0.3 µM (≈ 0.122 µg/mL) | GuaBi CLSI MIC fold change from parent strain ([3]; guaB allele wild-type): 1 | MIC [4, 11]: 0.8 µM (≈ 0.325 µg/mL) | MIC [4, 12]: 0.6 µM (≈ 0.244 µg/mL) | MIC [4, 13]: 0.2 µM (≈ 0.0814 µg/mL) | MIC [4, 14]: 1.8 µM (≈ 0.732 µg/mL) | MIC [4, 15]: 8.3 µM (≈ 3.38 µg/mL) | GuaBi CLSI MIC fold change from parent strain ([4]; guaB allele P25A): 3.3 | GuaBi CLSI MIC fold change from parent strain ([4]; guaB allele P25S): 2.5 | GuaBi CLSI MIC fold change from parent strain ([4]; guaB allele Y445C): 1 | GuaBi CLSI MIC fold change from parent strain ([4]; guaB allele Y445N): 7 | GuaBi CLSI MIC fold change from parent strain ([4]; guaB allele Y445S): 32 | in vitro safety profile: promiscuity [5]: high promiscuity risk | in vitro safety profile: selectivity [5]: off-target selectivity | Promiscuity Risk ([5]; 50µM): 51% | Selectivity Risk ([5]; 50µM): 17% | Hits (>50% Binding) ([5]; 50µM): 21 | Hits (>75% Binding) ([5]; 50µM): 7 | hERG 10µM (hERG): 6.3% | hERG 50µM (hERG; 50µM): 50.1% | IC50 at 2 day (in vitro; [17]): 19200 nM | IC50 at 2 day (in vitro; [18]): 30200 nM | in vitro safety profile: cytotoxicity [6]: cytotoxicity liabilities
